Paper PMC3742671, “Structure, Antimicrobial Activities and Mode of Interaction with Membranes of Bovel Phylloseptins from the Painted-Belly Leaf Frog, Phyllomedusa sauvagii” (PLoS ONE, 2013)
Ends that are not written are not given here.

Tests used:
[1] = Circular dichroism spectroscopy in SDS micelles; type: physicochemical; settings: CD, peptide 30 µM in 80 mM SDS
Experimental: (§1) The far-ultraviolet circular dichroism (CD) spectra were recorded as described. Phylloseptins-S (30 µM) were solubilized either in 80 mM sodium dodecyl sulfate (SDS) or in phosphate-buffered saline (PBS: 10 mM phosphate, pH 7.3) containing 1 mg/mL of large unilamellar vesicles (LUVs) of 1,2-dimyristoyl-sn-glycero-3-phosphocholine (DMPC) and 1,2-dimyristoyl-sn-glycero-3-phosphoglycerol (DMPG) (3∶1 mol/mol). DMPC and DMPG were purchased from Avanti Polar Lipids, Inc. Each spectrum was the average of four scans. CD measurements are reported as Δ/n, where Δ is the dichroic increment and n is the number of residues in the peptide.
(§2) Figure 6 Circular dichroism spectra of synthetic phylloseptins-S (30 µM). (A) DMPC/DMPG (3∶1) large unilamellar vesicles in PBS (1 mg/mL). (B) 80 mM SDS. CD measurements are reported as the dichroic increment (Δε) per residue.

[2] = test system: S. pyogenes ATCC 19615; settings: LB medium (pH 7), absorbance at 630 nm; average of three independent experiments in triplicates
Experimental: (§3) The effect of phylloseptins-S was evaluated against several bacterial strains and yeasts (Table 2). Bacteria were cultured in Luria-Bertani broth (LB), whereas yeasts were cultured in Yeast Peptone Dextrose medium (YPD), and minimal inhibitory concentrations (MICs) were determined by measuring the absorbance at 630 nm in 96-well microtitration plates, as described previously. Leishmanicidal activity of phylloseptins-S was also examined against promastigotes of different Leishmania species: Leishmania infantum (strain MHOM/MA/67/ITMAP-263), L. major (MHOM/SU/73/5-ASKH) and L. braziliensis (MHOM/BR/75/M2904). Culture of promastigotes and determination of the growth inhibition were performed as previously described, [22], [23].
(§4) The antimicrobial activity of synthetic PLS-S1 to -S5 was assayed in LB medium (pH 7) against several Gram-negative and Gram-positive bacteria, and multi-drug resistant S. aureus strains. […] The antiparasitic activity of PLSs was also determined against three Leishmania species (L. infantum, L. major, and L. braziliensis). […] Because PLS-S3 contains histidines as basic residues and that approximately only 11% of these residues are positively charged at pH 7, we have evaluated the antibacterial activity at pH 5 at which His residues are predominantly positively charged (∼91%).

[3] = test system: S. aureus ATCC BAA-44; settings: multidrug resistant strain; LB medium (pH 7), absorbance at 630 nm; average of three independent experiments in triplicates
Experimental: as §3, §4

[4] = test system: E. coli ATCC 25922; settings: for MIC: ATCC 25922, pH 7
Experimental: as §3, §4

[5] = test system: K. pneumoniae ATCC 13883; settings: LB medium (pH 7), absorbance at 630 nm; average of three independent experiments in triplicates
Experimental: as §3, §4

[6] = test system: S. aureus ATCC 25923; settings: LB medium (pH 7), absorbance at 630 nm, 96-well plates; average of three independent experiments in triplicates
Experimental: as §3, §4

[7] = test system: E. coli ML-35p; settings: LB medium (pH 7), absorbance at 630 nm; average of three independent experiments in triplicates
Experimental: as §3, §4

[8] = test system: A. baumannii ATCC 19606; settings: LB medium (pH 7), absorbance at 630 nm; average of three independent experiments in triplicates
Experimental: as §3, §4

[9] = test system: S. aureus ST1065; settings: LB medium (pH 7), absorbance at 630 nm; average of three independent experiments in triplicates
Experimental: as §3, §4

[10] = test system: P. aeruginosa ATCC 27853; settings: LB medium (pH 7), absorbance at 630 nm; average of three independent experiments in triplicates
Experimental: as §3, §4

[11] = test system: S. aureus ATCC 43300; settings: strain resistant to methicillin and oxacillin; LB medium (pH 7), absorbance at 630 nm; average of three independent experiments in triplicates
Experimental: as §3, §4

[12] = test system: E. faecalis ATCC 29212; settings: LB medium (pH 7), absorbance at 630 nm; average of three independent experiments in triplicates
Experimental: as §3, §4

[13] = test system: C. parapsilosis ATCC 22019; type: cell-based
Experimental: as §3

[14] = test system: S. cerevisiae; type: cell-based
Experimental: as §3

[15] = Circular dichroism spectroscopy with DMPC/DMPG (3:1) large unilamellar vesicles; type: physicochemical; settings: CD, peptide 30 µM, DMPC/DMPG (3:1) LUVs 1 mg/mL in PBS pH 7.3
Experimental: as §1, §2

Substance	helix content [1] [%]	MIC [2] [µM]	MIC [3] [µM]	MIC at pH 5 ([4]; ATCC 25922, pH 5) [µM]	MIC [4] [µM]	MIC [5] [µM]	MIC [6] [µM]	MIC [7] [µM]	MIC [8] [µM]	MIC [9] [µM]	MIC [10] [µM]	MIC [11] [µM]	MIC [12] [µM]	MIC [13] [µM]	MIC [14] [µM]	helix content [15] [%]
FLSLIPHIVSGVASLAIHF-NH2 [PLS-S3]	44	12.5	>200	50	>200	>200	>200	>200	>200	>200	>200	>200	>200	>200	>200	65
LLGMIPVAISAISALSKL-NH2 [PLS-S5]	20	–	>100	–	>100	–	25	>100	–	>100	>100	>100	100	>100	–	60
